# Experimental data from patent US20070021434A1, “NON-NUCLEOSIDE ANTI-HEPACIVIRUS AGENTS AND USES THEREOF” (Migenix Inc., priority 2005, published 2007).
# Target: HCV RdRp (NS5B) (UniProt P26663)
# Type: biochemical, hepatitis C virus
# HCV RdRp (NS5B), sequence (P26663 whole entry, looked up): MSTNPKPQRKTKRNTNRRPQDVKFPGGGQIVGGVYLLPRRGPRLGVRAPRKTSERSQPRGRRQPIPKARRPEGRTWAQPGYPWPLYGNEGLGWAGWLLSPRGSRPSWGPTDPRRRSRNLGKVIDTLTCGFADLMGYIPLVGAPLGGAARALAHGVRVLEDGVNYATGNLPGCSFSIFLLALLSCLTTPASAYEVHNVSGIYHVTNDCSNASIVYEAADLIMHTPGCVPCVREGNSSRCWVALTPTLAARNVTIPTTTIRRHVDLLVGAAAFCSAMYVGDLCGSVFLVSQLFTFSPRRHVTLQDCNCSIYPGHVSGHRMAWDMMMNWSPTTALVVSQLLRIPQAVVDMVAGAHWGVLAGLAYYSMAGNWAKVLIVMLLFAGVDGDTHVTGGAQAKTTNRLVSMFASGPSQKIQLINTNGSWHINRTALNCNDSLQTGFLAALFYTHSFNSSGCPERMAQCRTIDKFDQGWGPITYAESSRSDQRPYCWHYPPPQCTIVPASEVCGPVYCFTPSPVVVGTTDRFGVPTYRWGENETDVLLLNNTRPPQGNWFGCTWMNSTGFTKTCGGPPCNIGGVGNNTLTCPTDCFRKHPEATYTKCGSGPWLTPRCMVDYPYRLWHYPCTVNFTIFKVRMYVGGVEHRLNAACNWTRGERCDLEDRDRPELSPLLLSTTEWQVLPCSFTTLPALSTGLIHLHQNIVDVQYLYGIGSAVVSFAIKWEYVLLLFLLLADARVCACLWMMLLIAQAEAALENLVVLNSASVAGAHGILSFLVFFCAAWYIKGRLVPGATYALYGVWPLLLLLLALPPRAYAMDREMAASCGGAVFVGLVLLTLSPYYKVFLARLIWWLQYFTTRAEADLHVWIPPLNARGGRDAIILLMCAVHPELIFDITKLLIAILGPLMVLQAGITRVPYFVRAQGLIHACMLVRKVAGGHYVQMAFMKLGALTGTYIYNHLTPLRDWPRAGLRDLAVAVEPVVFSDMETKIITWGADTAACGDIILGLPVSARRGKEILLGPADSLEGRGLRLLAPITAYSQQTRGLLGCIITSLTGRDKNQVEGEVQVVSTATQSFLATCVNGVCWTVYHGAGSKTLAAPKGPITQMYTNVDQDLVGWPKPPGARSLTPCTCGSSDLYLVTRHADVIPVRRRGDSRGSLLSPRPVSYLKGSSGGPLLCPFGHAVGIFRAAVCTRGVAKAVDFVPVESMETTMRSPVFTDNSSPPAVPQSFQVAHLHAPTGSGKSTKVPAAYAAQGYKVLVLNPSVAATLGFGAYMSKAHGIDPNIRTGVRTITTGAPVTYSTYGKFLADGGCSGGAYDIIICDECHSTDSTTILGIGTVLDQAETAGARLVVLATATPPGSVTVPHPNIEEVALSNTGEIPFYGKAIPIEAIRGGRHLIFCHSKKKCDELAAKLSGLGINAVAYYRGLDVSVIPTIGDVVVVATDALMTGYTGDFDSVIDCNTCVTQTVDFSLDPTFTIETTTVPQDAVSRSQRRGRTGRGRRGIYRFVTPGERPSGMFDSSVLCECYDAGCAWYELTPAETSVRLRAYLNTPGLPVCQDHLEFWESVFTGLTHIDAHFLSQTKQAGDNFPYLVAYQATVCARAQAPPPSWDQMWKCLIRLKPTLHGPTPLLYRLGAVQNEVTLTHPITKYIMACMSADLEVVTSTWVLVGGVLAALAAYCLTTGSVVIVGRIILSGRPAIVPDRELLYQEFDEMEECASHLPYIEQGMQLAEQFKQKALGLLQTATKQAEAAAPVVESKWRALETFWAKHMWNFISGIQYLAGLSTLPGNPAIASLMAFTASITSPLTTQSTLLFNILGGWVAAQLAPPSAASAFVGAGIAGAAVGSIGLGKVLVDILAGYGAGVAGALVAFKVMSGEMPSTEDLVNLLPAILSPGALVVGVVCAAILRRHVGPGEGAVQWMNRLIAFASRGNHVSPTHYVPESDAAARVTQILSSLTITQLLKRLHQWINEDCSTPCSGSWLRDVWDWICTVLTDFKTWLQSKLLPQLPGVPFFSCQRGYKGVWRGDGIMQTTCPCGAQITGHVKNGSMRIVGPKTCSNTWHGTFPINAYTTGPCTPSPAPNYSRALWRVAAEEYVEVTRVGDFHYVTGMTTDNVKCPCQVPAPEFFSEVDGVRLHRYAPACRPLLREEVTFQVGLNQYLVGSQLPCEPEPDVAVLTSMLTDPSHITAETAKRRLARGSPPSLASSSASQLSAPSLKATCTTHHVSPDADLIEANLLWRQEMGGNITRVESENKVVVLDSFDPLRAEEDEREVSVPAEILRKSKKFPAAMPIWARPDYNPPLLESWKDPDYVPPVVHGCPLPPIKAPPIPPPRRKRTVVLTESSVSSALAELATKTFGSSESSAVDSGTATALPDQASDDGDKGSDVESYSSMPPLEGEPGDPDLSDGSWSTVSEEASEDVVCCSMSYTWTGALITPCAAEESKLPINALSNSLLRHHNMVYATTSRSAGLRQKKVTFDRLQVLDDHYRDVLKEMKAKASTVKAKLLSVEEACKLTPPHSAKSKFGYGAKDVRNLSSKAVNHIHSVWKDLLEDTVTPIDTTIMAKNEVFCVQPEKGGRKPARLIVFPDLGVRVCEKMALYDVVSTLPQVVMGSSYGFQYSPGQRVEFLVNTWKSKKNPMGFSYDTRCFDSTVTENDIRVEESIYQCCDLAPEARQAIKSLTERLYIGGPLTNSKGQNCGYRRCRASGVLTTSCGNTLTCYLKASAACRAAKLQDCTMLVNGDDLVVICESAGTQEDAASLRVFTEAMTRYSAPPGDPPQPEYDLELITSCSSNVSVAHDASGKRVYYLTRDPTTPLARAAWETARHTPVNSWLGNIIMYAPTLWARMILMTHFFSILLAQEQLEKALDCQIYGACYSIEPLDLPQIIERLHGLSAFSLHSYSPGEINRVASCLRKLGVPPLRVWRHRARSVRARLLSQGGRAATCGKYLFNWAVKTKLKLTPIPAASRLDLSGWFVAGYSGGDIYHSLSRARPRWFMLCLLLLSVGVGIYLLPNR
row,SMILES,IC50 [µM]
1,"Cc1ccc(NC(=O)C(CCC(=O)O)NC(=O)OCC2c3ccccc3-c3ccccc32)cc1 [Compound 373, (R)-4-(9H-FLUOREN-9-YLMETHOXYCARBONYLAMINO)-4-P-TOLYLCARBAMOYL-BUTYRIC ACID]",> 50
2,"NCCC[C@@H](NC(=O)OCC1c2ccccc2-c2ccccc21)C(=O)Nc1ccc(CN(C(=O)c2ccco2)C2CCCCC2)cc1 [Compound 16, (R)-[4-AMINO-1-(4-{[CYCLOHEXYL-(FURAN-2-CARBONYL)-AMINO]-METHYL}-PHENYLCARBAMOYL)-BUTYL]-CARBAMIC ACID 9H-FLUOREN-9-YLMETHYL ESTER]",< 10
3,"NCCC[C@@H](NC(=O)OCC1c2ccccc2-c2ccccc21)C(=O)Nc1ccc(C2CCCCC2)cc1 [Compound 198, (R)-[4-AMINO-1-(4-CYCLOHEXYL-PHENYLCARBAMOYL)-BUTYL]-CARBAMIC ACID 9H-FLUOREN-9-YLMETHYL ESTER]",< 10
4,"Cc1ccccc1NC(=O)C(CCCCN)NC(=O)OCC1c2ccccc2-c2ccccc21 [Compound 45, (S)-(5-AMINO-1-O-TOLYLCARBAMOYL-PENTYL)-CARBAMIC ACID 9H-FLUOREN-9-YLMETHYL ESTER]",> 50
5,"NCCC[C@@H](NC(=O)Nc1ccc(-c2ccccc2)cc1)C(=O)Nc1ccc(C2CCCCC2)cc1 [Compound 201, (R)-5-AMINO-2-(3-BIPHENYL-4-YL-UREIDO)-PENTANOIC ACID (4-CYCLOHEXYL-PHENYL)-AMIDE]",< 10
6,"Cc1ccc(NC(=O)[C@H](CCCCN)NC(=O)Nc2ccc(OCc3ccccn3)cc2)cc1 [Compound 299, (S)-6-AMINO-2-{3-[4-(PYRIDIN-2-YLMETHOXY)-PHENYL]-UREIDO}-HEXANOIC ACID P-TOLYLAMIDE]",10 to 50
7,"COc1cc2ccccc2cc1C(=O)NC(CCCCN)C(=O)Nc1ccc(C)cc1 [Compound 65, (S)-3-METHOXY-NAPHTHALENE-2-CARBOXYLIC ACID (5-AMINO-1-P-TOLYLCARBAMOYL-PENTYL)-AMIDE]",> 50
8,"Cc1ccc(NC(=O)[C@H](CCCCN)NS(=O)(=O)c2ccc(C)cc2)cc1 [Compound 396, (S)-6-AMINO-2-(TOLUENE-4-SULFONYLAMINO)-HEXANOIC ACID P-TOLYLAMIDE]",> 50
9,"Cc1ccc(NC(=O)[C@H](CCCCN)NS(=O)(=O)c2cccc3ccccc23)cc1 [Compound 68, (S)-6-AMINO-2-(NAPHTHALENE-1-SULFONYLAMINO)-HEXANOIC ACID P-TOLYLAMIDE]",> 50
10,"Cc1ccc(NC(=O)C(CCCCN)NC(=O)C(N)Cc2cccc3ccccc23)cc1 [Compound 60, (S,S)-6-AMINO-2-(2-AMINO-3-NAPHTHALEN-1-YL-PROPIONYLAMINO)-HEXANOIC ACID P-TOLYLAMIDE]",> 50
11,"CC(C)(C)OC(=O)NCCCC[C@H](NC(=O)OCC1c2ccccc2-c2ccccc21)C(=O)NCCc1c[nH]c2ccccc12 [Compound 56, (S)-{5-((9H-FLUOREN-9-YLMETHOXYCARBONYL)AMINO)-5-[2-(1H-INDOL-3-YL)-ETHYLCARBAMOYL]-PENTYL}-CARBAMIC ACID TERT-BUTYL ESTER]",> 50
12,"Cc1ccc(NC(=O)[C@H](CCCCN)NS(=O)(=O)c2cccc3nonc23)cc1 [Compound 398, (S)-6-AMINO-2-(BENZO[1,2,5]OXADIAZOLE-4-SULFONYLAMINO)-HEXANOIC ACID P-TOLYLAMIDE]",> 50
13,"Cc1ccc(NC(=O)C(CCC(=O)O)NC(=O)OCC2c3ccccc3-c3ccccc32)cc1 [Compound 372, (S)-4-(9H-FLUOREN-9-YLMETHOXYCARBONYLAMINO)-4-P-TOLYLCARBAMOYL-BUTYRIC ACID]",> 50
14,"Cc1ccc(NC(=O)C2CC(OC(=O)CN)CN2C(=O)OCC2c3ccccc3-c3ccccc32)cc1 [Compound 131, (S)-[4-(R)-(2-AMINO-ACETOXY)-2-P-TOLYLCARBAMOYL-PYRROLIDINE-1-CARBOXYLIC ACID 9H-FLUOREN-9-YLMETHYL ESTER]]",> 50
15,"NCCCC[C@H](NC(=O)OCC1c2ccccc2-c2ccccc21)C(=O)Nc1ccc(OCc2ccccc2)c(Cl)c1 [Compound 210, (S)-[5-AMINO-1-(4-BENZYLOXY-3-CHLORO-PHENYLCARBAMOYL)-PENTYL]-CARBAMIC ACID 9H-FLUOREN-9-YLMETHYL ESTER]",< 10
16,"COC(=O)C(Cc1c[nH]c2ccccc12)NC(=O)[C@H](CCCCN)NC(=O)OCC1c2ccccc2-c2ccccc21 (mixture of isomers) [Compound 55, (+/−)-2-[6-AMINO-2-(S)-((9H-FLUOREN-9-YLMETHOXYCARBONYL)AMINO)-HEXANOYL-AMINO]-3-(1H-INDOL-3-YL)-PROPIONIC ACID METHYL ESTER]",> 50
17,CSCCC(NC(=O)OCC1c2ccccc2-c2ccccc21)C(=O)Nc1ccc(C)cc1 (centres unmarked) [Compound 112],> 50
18,"Cc1ccc(NC(=O)CC2CN(C(=O)C(C)N)CCN2C(=O)OCC2c3ccccc3-c3ccccc32)cc1 [Compound 184, 4-((S)-2-AMINO-PROPIONYL)-2-(P-TOLYLCARBAMOYL-METHYL)-PIPERAZINE-1-CARBOXYLIC ACID 9H-FLUOREN-9-YLMETHYL ESTER]",> 50
19,"Cc1cc2cc(NC(=O)C(CCCCN)NC(=O)OCC3c4ccccc4-c4ccccc43)ccc2[nH]1 [Compound 38, (S)-[5-AMINO-1-(2-METHYL-1H-INDOL-5-YLCARBAMOYL)-PENTYL]-CARBAMIC ACID 9H-FLUOREN-9-YL METHYL ESTER]",10 to 50
20,"Cc1ccc(NC(=O)[C@H](CCCCN)NC(=O)Nc2ccc(OCc3ccc([N+](=O)[O-])cc3)cc2)cc1 [Compound 196, (S)-6-AMINO-2-{3-[4-(4-NITRO-BENZYLOXY)-PHENYL]-UREIDO}-HEXANOIC ACID P-TOLYLAMIDE]",10 to 50
21,"COc1cccc(NCC(=O)N[C@@H](CCCCN)C(=O)Nc2ccc(C)cc2)c1 [Compound 358, (S)-6-AMINO-2-[2-(3-METHOXY-PHENYLAMINO)-ACETYLAMINO]-HEXANOIC ACID P-TOLYLAMIDE]",10 to 50
22,"NCCCCN(CC(=O)Nc1ccc(C2CCCCC2)cc1)C(=O)Nc1ccc(OCc2ccccc2)cc1 [Compound 323, 2-[1-(4-AMINO-BUTYL)-3-(4-BENZYLOXY-PHENYL)-UREIDO]-N-(4-CYCLOHEXYL-PHENYL)-ACETAMIDE]",> 50
23,"N[C@@H](CNC(=O)OCC1c2ccccc2-c2ccccc21)C(=O)Nc1ccc(CN(C(=O)c2ccco2)C2CCCCC2)cc1 [Compound 17, (S)-[2-AMINO-2-(4-{[CYCLOHEXYL-(FURAN-2-CARBONYL)-AMINO]-METHYL}-PHENYLCARBAMOYL)-ETHYL]-CARBAMIC ACID 9H-FLUOREN-9-YLMETHYL ESTER]",10 to 50
24,"CCCC[C@H](NC(=O)OCC1c2ccccc2-c2ccccc21)C(=O)Nc1ccc(CN(C(=O)c2ccco2)C2CCCCC2)cc1 [Compound 37, (S)-[1-(4-{[CYCLOHEXYL-(FURAN-2-CARBONYL)-AMINO]-METHYL}-PHENYLCARBAMOYL)-PENTYL]-CARBAMIC ACID 9H-FLUOREN-9-YLMETHYL ESTER]",> 50
25,"NCCCC[C@H](NC(=O)Nc1cccc2ccccc12)C(=O)Nc1ccc(CN(C(=O)c2ccco2)C2CCCCC2)cc1 [Compound 31, (S)-FURAN-2-CARBOXYLIC ACID {4-[6-AMINO-2-(3-NAPHTHALEN-1-YL-UREIDO)-HEXANOYLAMINO]-BENZYL}-CYCLOHEXYL-AMIDE]",10 to 50
26,"Cc1ccc(NC(=O)C2(NC(=O)OCC3c4ccccc4-c4ccccc43)CCCNC2)cc1 (centres unmarked) [Compound 109, (3-P-TOLYLCARBAMOYL-PIPERIDIN-3-YL)-CARBAMIC ACID 9H-FLUOREN-9-YLMETHYL ESTER]",> 50
